# Test results from patent US20240190920A1, “BECLIN 1-TARGETED STAPLED PEPTIDE AND PHARMACEUTICAL COMPOSITION” (Shenzhen Research Institute of the Hong Kong Polytechnic …, priority 2021, published 2024).
# “Also recorded” adds a separate entry of the source. Bridge positions count the residues as written; N and C are the ends. Square brackets hold non-standard residues; d marks the D form. Peptide text beside a SMILES is read from it. R8 = C=CCCCCCC[C@@](C)(N)C(=O)O; S5 = C=CCCC[C@](C)(N)C(=O)O
# Columns and labels:
# HER2 = experiment: EGF-induced endolysosomal degradation of HER2, Western blot; type: cell-based; details: SKBR3, 2 μM
# Experimental: (§1) FIG. 9 is a schematic diagram of the result showing peptides based on (I7-01s) scaffold are potent inducers of endolysosomal trafficking. (a-c) Western blot to assess the HER2 and EGFR levels in SKBR3 cells. Cells are starved overnight and are treated with 200 ng/ml EGF respectively with vehicle control (a), 2 μM Tat-SP4 (b), 2 μM i7-01s-31 (c). (d & e) Time-dependent plots to quantify HER2 and EGFR degradation profiles after three independent experiments. The levels of HER2 (d) and EGFR (e) are normalized to the β-actin level at different time points and then further normalized to time 0, when the ligand EGF is added. Data are presented as mean±SEM (n=3).
# In some embodiments, the Beclin 1-targeting stapled peptide provided by the present disclosure can effectively promote endolysosomal trafficking. As a scaffolding member of the PI3KC3 complex, Beclin 1 is essential for multiple PI3KC3-dependent processes including autophagy, endolysosomal trafficking and phagocytosis. To assess the efficacy of the newly designed peptides on the endolysosomal trafficking process, the ligand-induced endolysosomal degradation of cell surface receptors HER2 and EGFR is characterized by western blotting using SKBR3 breast cancer cell line that over-expresses both EGFR and HER2. […] In contrast, i7-01s-31 treatment at 2 μM results in significant reduction of HER2 level, with about 50% decrease at 15 hours post EGF stimulation, and about 70% decrease at 24 hours (as shown in FIGS. 9c & 9d). i7-01s-31 treatment also strongly promotes EGFR degradation, with approximately 60% reduction at 15 hours post EGF stimulation (as shown in FIGS. 9c & 9e).
# Whole cell lysates are extracted using Laemmli sample buffer (62.5 mM Tris-HCl, pH 6.8, 2% SDS, 25% glycerol, 5% β-mercaptoethanol) supplemented with EDTA-free protease inhibitor cocktail (Roche). Protein concentration is determined using a standard Bradford assay before immunoblotting. Protein samples are separated by SDS-PAGE, transferred to a PVDF membrane (Millipore, USA), and incubated with the primary antibodies and HRP-conjugated secondary antibodies. […]
# EGFR = experiment: EGF-induced endolysosomal degradation of EGFR, Western blot; type: cell-based; details: SKBR3, 2 μM
# Experimental: as §1
# In some embodiments, the Beclin 1-targeting stapled peptide provided by the present disclosure can effectively promote endolysosomal trafficking. As a scaffolding member of the PI3KC3 complex, Beclin 1 is essential for multiple PI3KC3-dependent processes including autophagy, endolysosomal trafficking and phagocytosis. […]
# Whole cell lysates are extracted using Laemmli sample buffer (62.5 mM Tris-HCl, pH 6.8, 2% SDS, 25% glycerol, 5% β-mercaptoethanol) supplemented with EDTA-free protease inhibitor cocktail (Roche). Protein concentration is determined using a standard Bradford assay before immunoblotting. […]
# SKBR3 cells [1] = experiment: Flow cytometry with Annexin V FITC-PI staining; type: cell-based; details: for PI positive cells: SKBR3, 10 μM, 24 hours; for change of Annexin V positive cells (apoptosis) / change of PI positive staining cells (dead cells): SKBR3, 24 hours
# Experimental: FIG. 12 is a schematic diagram of the result showing the peptides based on strategy (i7-01s) scaffold induce cell death with necrotic features. Flow cytometry analysis with Annexin V FITC-PI staining is performed in SKBR3 cells after treatment of the indicated peptides for 24 hours.
# The degree of cellular apoptosis and necrosis is assessed by flow cytometry following the standard protocol provided by the manufacturer. Briefly, SKBR3 cells after the indicated peptide treatment are harvested by trypsin, labelled with Annexin V and PI (Invitrogen), subjected to flow cytometer system (BD Accuri C6), and analyzed by BD Accuri C6 software. The cell populations can be distinguished by the staining of Annexin V/PI. Typically, cellular population in the lower left quadrant is live cells (Annexin V^−, PI^−), the lower right quadrant represents early apoptotic cells (Annexin V^+, PI^−), the upper right quadrant represents late apoptotic cells (Annexin V^+, PI^+), the upper left quadrant represents necrotic cells (Annexin V^−, PI^+).
# HEK293T cells [2] = experiment: Trypan blue exclusion cytotoxicity assay in HEK293T cells; type: cell-based
# Experimental: FIG. 7 is a schematic diagram of the result of evaluating the cytotoxicity of the newly designed stapled peptide on HEK293T cells by the trypan blue exclusion assay.
# (§2) Cell viability is measured by trypan blue exclusion assay following the standard protocol provided by the manufacturer. SKBR3 cells are seeded on 96-well plates containing complete medium at a density of 1×10^4 cells per well. Upon cell attachment, cells are treated with the indicated stapled peptide or vehicle control for 24 hours. Afterwards, the number of trypan blue positive staining cells and the number of total cells are manually counted under a light microscope (Olympus). Cell viability is calculated as the number of viable cells divided by the total number of cells. All experiments are repeated in triplicate and the mean is calculated.
# SKBR3 cells [3] = experiment: Trypan blue exclusion assay, IC50 in SKBR3 cells; type: cell-based; details: SKBR3, 24h
# Experimental: (§3) (a) Trypan blue exclusion assay to assess the cytotoxicity IC50 (half maximal inhibitory concentration) of the indicated peptides in SKBR3 cells. Cells are treated with various concentrations of the indicated peptides for 24h. Cell numbers are manually counted by the trypan blue exclusion assay using a hemocytometer. Data are presented as mean±SD from three independent experiments. (b-d) Cell proliferation assay is performed over a time span of five days in SKBR3 cells after treatment with the indicated peptides. Cells are treated with the indicated peptides at day 0 and the cell number is calculated at the given time points. The assay is performed in 96 well plates with three independent measurements. Tat-SC4 is a control peptide with scrambled Tat-SP4 sequence but without the hydrocarbon staple.
# as §2, with “Upon cell attachment, cells are treated with the indicated stapled peptide or vehicle control for 24 hours.” left out
# HEK293T cells [4] = experiment: Western blot of autophagy markers LC3 and p62; type: cell-based
# Experimental: FIG. 8 is a schematic diagram showing that the peptides based on the i7-01s scaffold are effective inducers of autophagy. (a) Western blot to assess the p62 level and LC3 lipidation profile in HEK293T cells after treatment with 10- and 20-μM i7-01s-31 for 3 hours, in the presence or absence of CQ. (b)&(c) Quantification of LC3 lipidation profiles from the Western blot data. (d)&(e) Quantification of p62 levels from the Western blot data from (a).
# The impact of these two peptides on cellular autophagic activity is examined by detecting the protein levels of LC3 and p62, two molecular markers of autophagy. During the autophagy process, cytosolic protein LC3 is converted from its apo form (LC3-I) to lipidated form (LC3-II) for accumulation on autophagosomes. Thus, an increase in LC3-II level is regarded as a reliable indicator of elevated cellular autophagic activity. Similarly, p62 is an autophagy receptor that is degraded in the lysosome together with autophagic substrates. A decrease in p62 level is also commonly used as an indicator for higher autophagic activity, although some studies have shown that p62 is not as sensitive as LC3-II.
# Whole cell lysates are extracted using Laemmli sample buffer (62.5 mM Tris-HCl, pH 6.8, 2% SDS, 25% glycerol, 5% β-mercaptoethanol) supplemented with EDTA-free protease inhibitor cocktail (Roche). Protein concentration is determined using a standard Bradford assay before immunoblotting. Protein samples are separated by SDS-PAGE, transferred to a PVDF membrane (Millipore, USA), and incubated with the primary antibodies and HRP-conjugated secondary antibodies. Protein bands are visualized using ECL reagents. β-actin is used as the internal reference protein to control the loading amount of SDS-PAGE.
# [5] = molecular target: T1, Beclin 1 coiled coil domain (Homo sapiens, UniProt Q14457); experiment: Isothermal titration calorimetry (ITC) binding affinity; details: 25° C., pH 7.4, Tat-fused peptide, read-out: Kd
# T1 construct: the coiled coil domain of human Beclin 1 (residues 176-268); thioredoxin-6xHis fusion tag with HRV 3C protease cleavage site; made in house; host or cells: Escherichia coli BL21(DE3)
# Experimental: The expression and purification of Beclin 1 coiled coil domain is performed as described previously. Briefly, the coiled coil domain of human Beclin 1 (residues 176-268) is cloned into the modified pET32a vector containing the human rhinovirus (HRV) 3C protease cleavage site and thioredoxin-6×His fusion tag. Recombinant protein for the Beclin1 coiled oil domain is expressed in Escherichia coli BL21(DE3) and purified by Ni^2+-NTA affinity chromatography (His Trap HP, GE Healthcare) first and followed by size-exclusion chromatography (Superdex 75, GE Healthcare).
# ITC assays are carried out by MicroCal PEAQ-ITC Automated (Marvern) at 25° C. All designed peptides and purified protein for the Beclin 1 coiled coil domain are dialyzed into the buffer containing 50 mM Tris, 150 mM NaCl at pH 7.4. For each titration assay, the injection syringe is loaded with 40 μl of peptide and the cell is loaded with Beclin 1 coiled coil domain protein. Typically, titrations consist of 19 injections, and each injection is performed at a time interval of 180 seconds to ensure that the titration peak returns to the baseline. The titration data are analyzed using the MicroCal PEAQ-ITC Analysis software and fitted by the one-site binding model.
# SKBR3 cells [6] = experiment: Five-day cell proliferation assay; type: cell-based; details: SKBR3, five days, 10 μM
# Experimental: as §3
# T1 sequence (Q14457 176-268): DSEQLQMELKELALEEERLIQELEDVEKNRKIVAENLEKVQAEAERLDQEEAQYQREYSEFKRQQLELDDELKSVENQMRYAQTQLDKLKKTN
Compound,HER2 degradation profile (HER2; 200 ng/ml EGF),EGFR degradation profile (EGFR; 200 ng/ml EGF),PI positive cells (SKBR3 cells [1]),change of Annexin V positive cells (apoptosis) (SKBR3 cells [1]),change of PI positive staining cells (dead cells) (SKBR3 cells [1]),decrease of HER2 level (HER2; 15 hours post EGF stimulation),decrease of HER2 level (HER2; 24 hours post EGF stimulation),"cell viability (HEK293T cells [2]; 5 μM, 24 hours)","cytotoxicity (HEK293T cells [2]; 20 μM, 24 h)",reduction of EGFR (EGFR; 15 hours post EGF stimulation),IC50 (SKBR3 cells [3]) [µM],autophagy induction compared with Tat-SP4 (HEK293T cells [4]),"LC3-II levels (HEK293T cells [4]; 10 and 20 μM, 3 hours, absence of CQ)","LC3-II levels (HEK293T cells [4]; 10 and 20 μM, 3 hours, presence of chloroquine (CQ))","protein level of p62 (HEK293T cells [4]; 10 and 20 μM, 3 hours, presence or absence of CQ)",Kd [5] [µM],effect on cell proliferation (SKBR3 cells [6])
"CC[C@H](C)[C@H](NC(=O)[C@H](CC(C)C)NC(=O)[C@H](CCCNC(=N)N)NC(=O)[C@H](CCCNC(=N)N)NC(=O)[C@H](CCCNC(=N)N)NC(=O)[C@H](CCCNC(=N)N)NC(=O)[C@H](CCC(N)=O)NC(=O)[C@H](CCCNC(=N)N)NC(=O)[C@H](CCCNC(=N)N)NC(=O)[C@H](CCCCN)NC(=O)[C@H](CCCCN)NC(=O)[C@H](CCCNC(=N)N)NC(=O)CNC(=O)[C@H](Cc1ccc(O)cc1)NC(C)=O)C(=O)N[C@@H](CO)C(=O)N[C@@H](CCC(=O)O)C(=O)N[C@@H](CC(C)C)C(=O)N[C@]1(C)CCCCCCC=CCCC[C@@](C)(C(=O)N[C@@H](C)C(N)=O)NC(=O)[C@H](CCCNC(=N)N)NC(=O)[C@H](CCC(N)=O)NC(=O)[C@H](CCCCN)NC(=O)[C@H](CCC(=O)O)NC(=O)[C@H](CCCNC(=N)N)NC(=O)[C@H](CC(=O)O)NC1=O [Tat-SP4, Ac-[Tat]-RLISEL(R8)DREKQR(S5)A-NH2, reference compound] (Ac-YGRKKRRQRRRRLISEL[R8]DREKQR[S5]A-NH2; staple 18-25)",does not show any noticeable impact,does not show any noticeable impact,approximately 8%,no increase,significant increase,–,–,–,–,–,–,–,–,–,–,–,–
CC[C@H](C)[C@@H]1NC(=O)[C@H](C(C)C)NC(=O)[C@H](CC(=O)O)NC(=O)[C@H](C(C)C)NC(=O)[C@H](CC(C)C)NC(=O)[C@](C)(NC(=O)[C@H](CC(N)=O)NC(=O)[C@H](Cc2ccccc2)NC(=O)[C@H](CC(C)C)NC(=O)[C@@H](NC(=O)[C@H](CCCNC(=N)N)NC(=O)[C@H](CCCNC(=N)N)NC(=O)[C@H](CCCNC(=N)N)NC(=O)[C@H](CCC(N)=O)NC(=O)[C@H](CCCNC(=N)N)NC(=O)[C@H](CCCNC(=N)N)NC(=O)[C@H](CCCCN)NC(=O)[C@H](CCCCN)NC(=O)[C@H](CCCNC(=N)N)NC(=O)CNC(=O)[C@H](Cc2ccc(O)cc2)NC(C)=O)C(C)C)CCCCCCC=CCCC[C@@](C)(C(=O)N[C@@H](CCCNC(=N)N)C(=O)N[C@@H](CCCCN)C(=O)N[C@H](C(N)=O)C(C)C)NC(=O)[C@H](CCCCN)NC1=O [i7-01s-31] (Ac-YGRKKRRQRRRVLFN[R8]LVDVIK[S5]RKV-NH2; staple 16-23),–,–,approximately 30%,without notable changes; also recorded: no increase,significantly increased; also recorded: significant increase,about 50%,about 70%,little impact on cell viability,negligible cytotoxicity,approximately 60%,7.12,comparable efficacy,noticeable albeit small increase,significantly stronger,does not show any noticeable change,0.33 ± 0.28,completely abolish cell proliferation
